From publication PMC7440915, “Discovery of surrogate agonists for visceral fat Treg cells that modulate metabolic indices in vivo” (eLife, 2020)
Where no end group is shown, it is not given here.

Tested on: vTreg53 Treg cells and VAT immunocytes
Assay: Immunocyte composition of spleen and VAT in HFD-fed mice after vTreg53 Treg transfer and immunization
Assay type: in vivo, mouse
Source text: Figure 6. Immunization with Fat1562 expands transferred vTreg53 Treg cells and suppresses HFD-induced VAT inflammation. (A) Scheme of the transfer and immunization protocol. (B) Frequencies of CD45.2^+ cells in Treg cells (n ≥ 7). (C) Frequencies of clonotype^+ cells in transferred CD45.2^+ Treg cells (n ≥ 7). (D) Number of clonotype^+ CD45.2^+ Treg cells in the spleen (n ≥ 7). (E) Number of clonotype^+ CD45.2^+ Treg cells in the VAT (n ≥ 7). (F) Number of total Treg cells in the spleen (n ≥ 7). (G) Number of total Treg cells in VAT (n ≥ 7). (H) Numbers of eosinophils and CD11c^hi inflammatory macrophages in VAT (n ≥ 7). Data are mean ± SD. Data shown are representative of at least two independent experiments. Figure 6—figure supplement 1. Gating strategy. Gating strategy used for detection of VAT Treg cells (top) and, eosinophils or macrophage cells (bottom) by flow cytometry. [drawing 6] TEXT PRINTED IN THE PICTURE: (B) adjuvant: Spl: 0.3 (Gated on Tregs); VAT: 4 (Gated on Tregs) | (B) adjuvant/ Fat1562: Spl: 1.2 (Gated on Tregs); VAT: 53.4 (Gated on Tregs) | (C) adjuvant: Spl: 62.3 (Gated on CD45.2^+ Tregs); VAT: 94.1 (Gated on CD45.2^+ Tregs) | (C) adjuvant/ Fat1562: Spl: 94.1 (Gated on CD45.2^+ Tregs); VAT: 97.8 (Gated on CD45.2^+ Tregs) | (H) adjuvant: 9.3 (Gated on CD45.1^+); 46.3 (Gated on CD45.1^+); 41.3 (Gated on F4/80^+) | (H) adjuvant/ Fat1562: 14.5 (Gated on CD45.1^+); 39.6 (Gated on CD45.1^+); 22.6 (Gated on F4/80^+) DOUBTS OF THE COPYIST ABOUT THIS PICTURE: All values are gate numbers printed inside flow cytometry plots; no measure or unit is printed beside them, so it is uncertain whether they count as results for a substance / 'adjuvant' is the control treatment and 'adjuvant/Fat1562' the test treatment; these are treatment groups, not single compounds / Panel B, adjuvant, VAT: printed as 4, a decimal may be hidden
Mice were asphyxiated with CO2. Epididymal VAT was excised, minced and digested for 20 min with 1.5 mg/ml collagenase type II (Sigma) in Dulbecco’s Modified Eagle’s Medium (DMEM) supplemented with 2% fetal calf serum (FCS) in a 37°C water bath with shaking. The digested materials were filtered through a sieve and then a 40 µm nylon cell strainer. The stromal vascular fraction was collected after centrifugation at 450 g for 10 min. For surface markers, cells were stained with anti-CD45.1 (A20), -CD45.2 (104), -CD3 (17A2), -CD4 (GK1.5), -TCR Vα2 (B20.1), -CD44 (IM7), -CD62L (MEL-14), -CD45 (30-F11), -CD11b (M1/70), -CD11c (N418), -F4/80 (BM8) mAbs (all from Biolegend), and anti-TCR Vβ4 (KT4), anti-Siglec-F (E50-2440) mAbs (both from BD Biosciences), as detailed in experiment descriptions. Foxp3 staining was performed using the Foxp3/Transcription Factor Staining Buffer Set and anti-Foxp3 (FJK-16s) mAb (both from eBioscience). Cells were acquired with an LSRII flow cytometer (BD Biosciences), an Accuri (BD Biosciences) or Cytoflex (Beckman Coulter). Propidium Iodide was used to distinguish live from dead cells. Assays were performed in biological duplicates or triplicates as described in the figure legends. Data were analyzed using FlowJo.
To assess early Treg proliferation following peptide stimulation in vivo, 0.4 million Treg cells were sorted from pooled Spl and LNs of 6-8wk-old male CD45.2^+ Tg^+ Foxp3-GFP^KI/y mice by Moflo, labeled by the CellTrace Violet dye (ThermoFisher Scientific), and were i.v.-injected into 6-8wk old male B6.CD45.1^+ mice. The next day, the recipient mice were injected with 200 µg peptides emulsified in CFA (CFA/peptides) s.c. on the lower back. Proliferation of clonotype^+ Tregs in the spleen was determined three days later. To examine the expansion of VAT-Treg cells by peptide immunization, we sorted 0.4 million Treg cells from pooled Spl/LNs of 6-8wk-old male CD45.2^+ Tg^+ Foxp3-GFP^KI/y mice and transferred them i.v. into 6-8wk old male B6.CD45.1^+ mice. […]

For TMYKNPRPMAATG [Fat1562], the “VAT inflammation” value was “reduced VAT inflammation”, the “expansion of adoptively transferred vTreg53 cells” value was “significant expansion” and the “clonotype^+ TCR-tg Treg cells, share of entire VAT-Treg pool” value (VAT, n ≥ 7) was “almost half”. The “frequency of CD11c^hi pro-inflammatory macrophages in VAT” value (VAT, n ≥ 7) was “reducing the frequency of CD11c^hi pro-inflammatory macrophages”, the “proportion of eosinophils in VAT” value (VAT, n ≥ 7) was “significantly increased the proportion of eosinophils” and the “total number of VAT Treg cells” value (VAT, n ≥ 7) was “significantly elevated”. For the same sequence, the “donor-derived cells, share of total Treg pool in spleen” value (spleen, immunization with Fat1562) was “less than 2%” and the “total number of splenic Treg cells” value (spleen, n ≥ 7) was “did not show a significant increase”.
